Columns and labels:
patients = conditions: cited from earlier work
K562, NB4 and U937 cells = assay: Retinoic acid uptake assay ([3H]RA, scintillation counting); format: cell-based, human
Procedure: Experiments were initiated by the addition of medium containing [^3H]RA (1 μM and 10 μM) and [^3H]RA-NPs (1 μg/mL and 10 μg/mL) to cultures (60,000 cells/condition, 24-well plate, 1 mL) of K562, NB4 and U937 cells. After experimental incubations with medium containing [^3H]RA and [^3H]RA-NPs for 4, 24 and 72 hours, cells were collected to eppendorfs, washed with PBS by centrifugation (1500 rpm, 5 min, 2 times) to remove non-internalized [^3H]RA and then resuspend in 100 μL of lysis buffer (see above) and kept on ice until scintillation counting procedure.
The titrium content of the samples was assayed by adding 100 μL aliquot of the samples to 1 mL liquid scintillation fluid (Packard Ultima Gold) and counted in a TriCarb 2900 TR Scintillation analyzer (Perkin Elmer). All conditions were performed in triplicate.

U937 cells [1] = assay: NP uptake in the presence of endocytosis inhibitors (FACS); format: cell-based, human; conditions: dynasor 80 μM; TRITC-labelled NPs 5 μg/mL
Procedure: (§1) Uptake mechanisms analysis. For determining the uptake mechanism(s), we first perform NP uptake assays in the presence of endocytosis inhibitors. U937 cells were cultured on 24 well plates (1×10^5 cells/well) and inhibited by one of the following chemicals during 30 min before adding a suspension of TRITC-labelled NPs (5 μg/mL): dynasor (80 μM), cytochalasin D (10 μM), nocodazole (50 uM), filipin III (100 μM) and polyinosinic acid (100 μg/mL). The inhibitor concentrations were based in values reported in literature and further validated by us to have no cytotoxic effect over the period of the assay (6 h), as confirmed by ATP assay. The incubation of the cells with NPs for different times was performed in the presence of the inhibitor. As controls, we used cells without NPs and cells incubated with NPs without inhibitor. At the end of each time point, cells were centrifuged at 1300 rpm, 2° C. for 5 min with PBS, washed one time with cold trypan blue solution (200 μL; 600 μg/mL), re-washed 3 times with cold PBS and then resuspended in PBS containing 2.5% FBS (500 μL) for FACS analysis. A total of 10,000 events were obtained per measurement. To validate the inhibitory activity of dynasor we performed uptake studies of FITC-labeled transferrin, known to selectively enter cells via clatherin-mediated endocytosis. […] Cells were then evaluated as before.

U937 cells [2] = assay: Uptake of FITC-labeled transferrin (validation of dynasor); format: cell-based, human; conditions: dynasor 80 μM, 30 min pre-incubation
Procedure: as §1

## CC1=C(/C=C/C(C)=C/C=C/C(C)=C/C(=O)O)C(C)(C)CCC1 [RA, retinoic acid]
patients; human, in vivo
  patients receiving RA who develop serious complications including the differentiation syndrome: approximately 25%
patients; up to
  patients in whom the dose of RA leads to hyperleukocytosis and respiratory distress syndrome: 20-30%
K562, NB4 and U937 cells
  time of peak RA uptake: 24 h

## O=C(N/N=C/c1ccc(O)c(O)c1)c1cc2ccccc2cc1O [Dynasore]
U937 cells [1]
  reduction of the uptake of NPs compared to control cells: 90%
U937 cells [2]
  internalisation of FITC-labeled transferrin: inhibits the internalisation of transferrin

## CC1=C(/C=C/C(C)=C/C=C/C(C)=C/C(=O)O)C(C)(C)CCC1 [[^3H]RA]
K562, NB4 and U937 cells; [^3H]RA 1 and 10 uM or [^3H]RA-NPs 1 and 10 ug/mL, for 4 hours, measured after 24 and 72 hours
  uptake yield of [^3H]RA: below 2%
